{"source": "patent US20120053119A1", "about": "“THERAPEUTIC METHOD FOR INCREASING PANCREATIC BETA CELL MASS” (priority 2009, published 2012)", "key": {"INS-1 or Min6 beta cells": {"test_system": "INS-1 or Min6 beta cells", "experiment": "SDF-1 mRNA by QPCR in injured beta cells", "format": "cell-based", "conditions": "3 to 20 hrs", "method": "FIG. 15. […] INS-1 or Min6 beta cells were treated for 3 to 20 hrs with the stress/apoptosis inducers, thapsigargin, streptozotocin (STZ), or mixtures of cytokines (listed at the bottom of the right lower panel). SDF-1 mRNA was measured in cell extracts by QPCR. Cytokines also stimulate the secretion of SDF-1 Protein (see new FIG. 21)."}, "Wnt signaling [1]": {"test_system": "Wnt signaling", "experiment": "Wnt signaling reporter (beta-galactosidase) in isolated islets of TopGal mouse", "format": "cell-based", "conditions": "added with SDF-1, isolated TopGal mouse islets", "quoted_text": "A. Isolated islets express reporter-driven beta-galactosidase. The dark regions mark the expression of beta-galactosidase, an indicator of the activation of the Wnt signaling reporter LacZ transgene. […] B. Polymerase chain reaction showing changes in beta-galactosidase mRNA levels in islets shown in panel A.\nIsolated mouse pancreatic islets Mouse islets were isolated (Lacy PE (1994) Pancreatic islet cell transplant. Mt Sinai J. Med. 61:23-31.) from the pancreata of TopGal reporter mice transgenic for the LEF-LacZ Wnt signaling reporter (DasGupta R, Fuchs E (1999) Development. 1999 126:4557-4568.). Freshly isolated islets were treated for 4 hrs with SDF-1 with and without the addition of the Galphai/o inhibitor pertussis toxin (PTX) or the CXCR4 antagonist AMD3100. Betagalactosidase activity was determined by incubation of the islets with X-gal for 6 hrs.\nPolymerase chain reaction analyses of betagalactosidase mRNA levels in isolated mouse islets Islets from TopGal mice were harvested after treatments with SDF-1, SDF-1+AMD3100, and SDF-1+pertussis toxin. RNA was extracted and beta galactosidase mRNA levels were measured by PCR using a SYBR Green QPCR kit (Stratagene) with the primers as described in Liu Z, Habener J F 2008 Glucagon-like Peptide-1 Activation of TCF7L2-dependent Wnt Signaling Enhances Pancreatic Beta Cell Proliferation. […]"}, "INS-1 cells [2]": {"test_system": "INS-1 cells", "experiment": "ATP-lite cell viability assay, serum deprivation, SDF-1 with AMD3100", "format": "cell-based", "conditions": "serum-free, SDF-1 2 nM", "method": "ATP lite cell viability assay: INS-1 cells were plated in 96 well plates. SDF-1 (2 nM) and AMD3100 were added at day 0, 2, 4 and cell viability was measured at day 6 using relative light units (RLU) as compared to control. N=6.\nINS-1 cells were plated in 96 well plates in control medium (no serum) or a medium containing 2% serum. SDF-1 (2 nM) and SDF-1 (2 nM) along with various concentrations of AMD3100 (2 uM, 0.4 uM, 80 nM, 16 nM) were added to different cell groups incubated in serum-free medium at days 0, 2, 4, and cell viability was measured at day 6 using relative light units (RLU) as compared to control."}, "Wnt signaling [3]": {"test_system": "Wnt signaling", "experiment": "Wnt signaling luciferase reporter assay (TOPflash/FOPflash) in INS-1 cells", "format": "cell-based", "quoted_text": "Wnt signaling is indicated by the value of TOPflash luciferase activity divided by FOPflash activity. A. Time course of the TOPflash:FOPflash ratio of INS-1 cell treated with 1 nM SDF-1. B. Ratio of TOPflash to FOPflash activity in INS-1 cells treated with increasing doses of SDF-1. C. […] All values are relative to the value of the untreated INS-1 cells. Data are normalized for transfection efficiency by co-transfected beta-galactosidase and represent means±S.D. of three experiments.\nAll values are relative to the first (leftmost) bar. Statistical significance is depicted as * (p<0.05) when compared with control values (leftmost bar). Data are normalized for transfection efficiency by co-transfected beta-galactosidase and represent means±S.D. of three experiments.\nWnt Signaling Luciferase Reporter Assay (TOPflash) INS-1 cells were plated into 24-well dishes 24 hr before transfection with TOPflash or the mutant, control reporter, FOPflash (1 microg/well) using LipofectAMINE2000 (Invitrogen). Various concentrations of SDF-1 or AMD3100 were then added to the culture medium 24 h following transfection for the indicated period of time. In studies in which inhibitors were used, LY294002 (50 microM), PD98059 (10 microM) or SH-5 (10 nM) were added concomitantly with SDF-1. In studies in which wild-type (wt), dominant-negative (dn) or contitutively-active (ca) forms of kinase were used, dnTCF7L2, dnGSK3beta, caGSK3beta, dnAkt, or caAkt (0.5 microg/well) was cotransfected with TOPflash. Luciferase activity in transfected cells was determined with a luciferase assay kit (Promega).\nWe examined SDF-1 induction of Wnt signaling using a Wnt signaling reporter assay (TOPflash/FOPflash). The TOPflash and FOPflash constructs contain the luciferase reporter either under the control of consensus TCF7L2-binding sites or mutated TCF7L2-binding sites, respectively. Luciferase activity was measured during 4 hr after addition of 1 nM SDF-1 (FIG. 3A)."}, "INS-1 cells [4]": {"test_system": "INS-1 cells", "conditions": "serum-free, SDF-1 2 nM, AMD3100 16 nM-2 uM, day 6", "method": "INS-1 cells were plated in 96 well plates in control medium (no serum) or a medium containing 2% serum."}, "INS-1 or MIN6 cells": {"test_system": "INS-1 or MIN6 cells", "experiment": "Thapsigargin-induced apoptosis, caspase-3 activity assay", "format": "cell-based", "conditions": "thapsigargin 1 microM, 16 h", "method": "FIG. 6. Inhibition of apoptosis by SDF-1 in INS-1 and MIN-6 cells is reversed by knock-down of betacatenin. A. Western blot analysis of extracts from MIN6 cells that were mock treated, thapsigargin-treated (1 μM) and/or siRNA transfected (0.25 mg/ml), by using anti-serum against cleaved caspase-3 (upper panel), anti-serum against cleaved PARP (middle panel) and actin antibody (lower panel) as a loading control. B. Caspase-3 activity (fluorescence/mg proteinx105) of INS-1 or MIN6 cells mock treated, thapsigargin-treated (1 μM) and/or siRNA transfected (0.25 mg/ml). Results are presented as mean±SD for n=3 independent experiments, All values are relative to the first (leftmost) bar. […] Quantification of apoptotic cells is expressed as percent apoptotic cells relative to the total cells counted (lower left panel). […]\nThapsigargin-induced apoptosis in INS-1 or MIN6 cells For western immuoblot assay (Cell Signaling), MIN6 cells were seeded into 6 well plates then treated with 1 microM thapsigargin or DMSO control for 16 h and apoptotic activity was measured by Western immunoblotting using antisera specific for cleaved (active) caspase-3 (Cell signaling #9661) and cleaved (active) PARP (Cell signaling #9548). For caspase-3 assay, INS-1 cells or MIN-6 cells in 24-well plates were treated with 1 microM thapsigargin or DMSO for 16 hand caspase-3 activity was determined (Molecular Probes). […]"}, "insulin producing cells": {"test_system": "insulin producing cells", "conditions": "in vitro, equimolar quantities; cited from earlier work"}, "pancreatic beta cell": {"test_system": "pancreatic beta cell", "experiment": "Preliminary studies of nonapeptide on pancreatic beta cell survival and growth", "format": "cell-based", "conditions": "preliminary data", "from_the_text": "(§1) The inventors have done preliminary studies using GLP-1(28-36), a nine amino acid peptide (the “nonapeptide”) cleaved from the C-terminus of GLP-1 (SEQ ID NO:4). In the studies, the inventors used the peptide having an arginine amide at the C-terminus (FIAWLVKGR-amide). […] The nonapeptide works both when applied to cells in vitro/ex vivo and when infused into mice in vivo."}, "mice": {"test_system": "mice", "experiment": "Infusion of GLP-1(28-36) amide nonapeptide into mice, islet size", "format": "in vivo", "conditions": "infusions into mice, preliminary", "from_the_text": "as §1"}, "[5]": {"test_system": "INS-1 cells and mouse islets", "experiment": "GLP-1 pro-proliferative and cytoprotective actions", "format": "cell-based", "conditions": "tentative"}}, "note": "Ends that are not written are not given here."}
{"compound": "CN(N=O)C(=O)N[C@H]1C(O)O[C@H](CO)[C@@H](O)[C@@H]1O", "note": "(mixture of isomers) [streptozotocin]", "values": [{"measurement": "SDF-1 expression (mRNA) in injured beta cells", "setting": "INS-1 or Min6 beta cells", "value": "induces SDF-1 expression"}]}
{"compound": "c1cc(CN2CCCNCCNCCCNCC2)ccc1CN1CCCNCCNCCCNCC1", "note": "[AMD3100]", "values": [{"measurement": "effect on SDF-1-induced Wnt signaling response in TopGal islets", "setting": "Wnt signaling [1]", "value": "inhibition"}, {"measurement": "effect on SDF-1 mediated cell survival", "setting": "INS-1 cells [2]; AMD3100 16 nM-2 uM", "value": "partially and dose-dependently blocked"}, {"measurement": "effective concentration for blocking SDF-1 mediated cell survival", "setting": "INS-1 cells [2]; day 6", "value": "around 1 uM"}, {"measurement": "effect on SDF-1 activation of luciferase activity (TOPflash/FOPflash)", "setting": "Wnt signaling [3]; coincubation with increasing amounts", "value": "antagonized"}, {"measurement": "effect on SDF-1 mediated insulin production", "setting": "INS-1 cells [4]", "value": "partially and dose-dependently blocked"}]}
{"compound": "COc1cccc(-c2cc(=O)c3ccccc3o2)c1N", "note": "[PD98059]", "values": [{"measurement": "effect on SDF-1-stimulated TOPflash activity", "setting": "Wnt signaling [3]; LY294002 50 microM, PD98059 10 microM, SH-5 10 nM", "value": "does not affect"}, {"measurement": "effect on basal level TOPflash activity", "setting": "Wnt signaling [3]; no SDF-1", "value": "do not affect"}]}
{"compound": "C/C=C(/C)C(=O)O[C@H]1C(C)=C2[C@H]([C@@H]1OC(=O)CCCCCCC)[C@@](C)(OC(C)=O)C[C@H](OC(=O)CCC)[C@@]1(O)[C@H]2OC(=O)[C@@]1(C)O", "note": "[Thapsigargin, reference compound]", "values": [{"measurement": "SDF-1 expression (mRNA) in injured beta cells", "setting": "INS-1 or Min6 beta cells", "value": "induces SDF-1 expression"}, {"measurement": "induction of caspase-3 activity", "setting": "INS-1 or MIN6 cells", "value": "threefold"}]}
{"compound": "Exendin-4: GLP-1 agonist peptide from Gila Monster salivary glands, SEQ ID NO: 3", "values": [{"measurement": "potency at causing insulin release", "setting": "insulin producing cells", "value": "more potent than GLP-1"}]}
{"compound": "FIAWLVKGR-amide (FIAWLVKGR-NH2) [GLP-1(28-36) amide nonapeptide]", "values": [{"measurement": "pancreatic beta cell survival and growth", "setting": "pancreatic beta cell", "value": "profound effects"}, {"measurement": "islet size in mice", "setting": "mice", "value": "enhances islet size"}]}
{"compound": "glucoincretin hormone, SEQ ID NO: 2, HAEGTFTSDVSSYLEGQAAKEFIAWLVKGRG [GLP-1]", "values": [{"measurement": "Kd", "setting": "[5]", "value": 1, "unit": "nM"}, {"measurement": "cytoprotective actions (concentration)", "setting": "[5]", "value": 10, "unit": "nM"}]}
